Data from patent US12564609B2, “Hematopoietic stem cell engraftment with a combination of agents” (The Board of Trustees of the Leland Stanford Junior …, priority 2020, dated 2026).

System: LT-HSC, ST-HSC, MPP
Experiment: Ki67 expression and HSPC depletion after AZA (dose titration)
Assay type: in vivo, C57BL/6 mice
Description: A. Schematic of treatment protocol. […] 24 h after last AZA injection BM was analyzed for HSC-depletion and Ki67 intracellular protein expression. B. […] C. Mean fluorescence intensity (MFI) of Ki67 intracellular protein expression in LT-HSC, ST-HSC, MPP2, MPP3/4 and myeloid progenitors (MP). Data were pooled from 2 independent experiments and represent mean±SD (n=7). Statistics were calculated Mann-Whitney test (*P<0.05; **P<0.01; ***P<0.001). D. Schematic of in vitro culture protocol. Mouse Lin^−Sca1+c-Kit^+CD48^− or human Lin^−CD34^+CD38^− were FACS-sorted and plated in 96-well flat bottom plate, coated with fibronectin and containing 100 μl of HSC media/well, supplemented with 10 ng/ml SCF and 100 ng/ml TPO. Different concentrations of AZA (0.1, 0.5 and 1 μg/ml) were added on two consecutive days (at baseline and 24 h after cell culturing) and cell counting, and cell imaging was performed every 6 h for total of 48 h on ImagExpress Pico automated cell counting system. After 48 h % live/dead cells was assessed by using EarlyTox Live/Dead Assay Kit. E. Proliferation curves of FACS-sorted mouse Lin^−Sca1^+c-Kit^+CD48^− in the presence of indicated concentrations of AZA (left) and cell viability as assessed by % of Calcein AM positive cells after 48 h of cell culture (right). Data represent mean±SD from 3 independent experiments. Statistics were calculated with Mann-Whitney test (*P<0.05; **P<0.01; ***P<0.001). F. Proliferation curves of FACS-sorted human Lin^−CD34^+CD38^− cells in the presence of indicated concentrations of AZA (left) and cell viability as assessed by % of Calcein AM positive cells after 48 h of cell culture (right). Data represent mean±SD from 2 independent experiments. Statistics were calculated with Mann-Whitney test (**P<0.01; ***P<0.001).
Analysis was performed 24 h after last AZA administration. Gated from lineage negative (Lin^−) live cells. Lin^−Sca1^+c-Kit^++ cells (LSK), long-term hematopoietic stem cells (LT-HSC). […] Data were pooled from 2 independent experiments and represent mean±SD (n=7). Statistics were calculated Mann-Whitney test (**P<0.01; ***P<0.001).
In vivo administration of therapeutic agents and cytokines. Anti-mouse CD117 mAbs, clone ACK2 (BioXcell) and 2B8 (BioXcell), were injected retroorbital as a single dose of 500 μg following intraperitoneal administration of Diphenhydramine (Benadryl). Anti CD4 (clone GK1.5, BioXcell) and anti-CD8 (clone YTS169.4, BioXcell) were administered intraperitoneally at a dose of 100 μg in 100 μl phosphate-buffered saline (PBS). 5-Azacytidine (AZA) ([…] Technologies), was reconstituted in PBS to a concentration of 5 mg/ml and kept at −20° for up to 1 month. Before each injection, AZA was thawed for 10-15 min at room temperature (RT), resuspended in PBS and administered intraperitoneally in 100 μl. […]

With `Nc1ncn([C@@H]2O[C@H](CO)[C@@H](O)[C@H]2O)c(=O)n1` [AZA, 5-Azacytidine] the “level of HSPC (LSK) and LT-HSC after depletion” value (AZA 1.25 mg/kg/d for 3 days, 24 h after last dose) was −25 % of baseline, the “normalization of Ki67 in HSC and MPP” value (AZA 5 mg/kg/d for 5 days) was at most 10 days and the “Ki67 in HSC and MPP” value (AZA 5 mg/kg/d for 5 days, day 6) was “significant increase of Ki67”. The “Ki67 protein expression in HSC, MPP and MP compartments” value (AZA 1.25, 2.5 and 5 mg/kg/d for 3 days (all three dose regimens)) was “significant increase in Ki67 protein expression”.
